Source: patent publication US20180332878A1, “BITTER TASTE INHIBITOR” (NAGAOKA CO., LTD., priority 2017, published 2018)

Columns and labels:
Type in all cases: in vivo, human
[1] = Sensory evaluation, summary of Table 2; conditions: added to an amino acid having a bitter taste
[2] = Sensory evaluation, summary of Table 3; conditions: added to an extract of a crude drug having a bitter taste
[3] = Sensory evaluation, summary of Table 1; conditions: added to a food or beverage having a bitter taste; without deteriorating the influence of the food or beverage itself
Excerpt: The beer (without addition of isobutyl angelate) was tasted by seven panelists (one twenty-something male, one thirty-something male, one forty-something male, one fifty-something male, one sixty-something male, and one twenty-something female and one thirty-something female). Subsequently, the seven panelists rinsed their mouths sufficiently, and then the beer having isobutyl angelate added thereto (with addition of isobutyl angelate) was tasted by the seven panelists. The panelists compared the isobutyl-angelate-free beer with the isobutyl-angelate-containing beer, and then determined whether or not the bitter taste in the isobutyl-angelate-containing beer was improved compared with the isobutyl-angelate-free beer in accordance with the following criteria. When the sum total of the scores determined by the seven panelists was 10 points or greater, it was determined that the bitter taste was improved.
1 point: although a bitter taste was sensed, the bitter taste was improved compared with the isobutyl-angelate-free beer; and
0 point: the bitter taste was not improved.

## C/C=C(/C)C(=O)OCC(C)C [isobutyl angelate, Isobutyl angelate]
[1]
  Effect on bitter taste (summary of Table 2): the bitter taste derived from the amino acid is reduced
[2]
  Effect on bitter taste (summary of Table 3): a bitter taste derived from the crude drug is reduced
[3]
  Effect on bitter taste (summary of Table 1): the bitter taste is reduced
